Reference: PMC3047498 (Journal of andrology, 2010)

Legend:
[1] = system: endogenous testosterone production; test: Suppression of endogenous testosterone production by acyline; format: in vivo, men; settings: 300 µg/kg acyline; for Serum testosterone concentration 24 hours after acyline administration: before oral testosterone
[2] = system: endogenous testosterone production; settings: 300 µg/kg acyline, normal healthy men; ref Herbst et al, 2004; cited from earlier work
[3] = testosterone plus finasteride group

acyline
Serum DHT concentration 24 hours after the acyline injection [1, 3]: 0.54 ± 0.32 nmol/L
Serum testosterone concentration 24 hours after acyline administration [1, 3]: 2.3 ± 1.4 nmol/L
Serum DHT concentration 24 hours after the acyline injection ([1]; testosterone-only group): 0.6 ± 0.32 nmol/L
Serum testosterone concentration 24 hours after acyline administration ([1]; testosterone-only group): 2.0 ± 1.3 nmol/L
Duration of testosterone suppression [2]: 2 weeks
Time to suppress testosterone to castrate levels [2]: ≤ 24 h
